Measured values: patent publication US9108983B2, “Pyrrole compounds, a process for their preparation and pharmaceutical compositions containing them” (LES LABORATOIRES SERVIER, priority 2013, dated 2015)
Counter-ions that a name gives are not always drawn. Like-named read-outs stand apart in the source and are kept apart here.

How the values were obtained:
[1] = system: RS4;11 leukaemia tumour line; assay: In vitro cytotoxicity (Microculture Tetrazolium Assay); type: cell-based; conditions: Homo sapiens, RS4;11 cells, exposed for 48 hours, cell viability, read-out: IC50 (nM) MTT RS4;11
Description: The cytotoxicity studies were carried out on the RS4;11 leukaemia tumour line.
The cells are distributed onto microplates and exposed to the test compounds for 48 hours.
The cell viability is then quantified by a colorimetric assay, the Microculture Tetrazolium Assay (Cancer Res., 1987, 47, 939-942).

Bcl-2 protein = Bcl-2 protein (histag-Bcl-2, UniProtKB P10415) (Homo sapiens (Human), UniProt P10415); assay: Inhibition of Bcl-2 by the fluorescence polarisation technique; type: binding; conditions: incubation for 2 hours, read-out: IC50 (nM) Bcl-2 FP
Method in brief: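 In pH 7.4 buffer (Hepes 10 mM, NaCl 150 mM, Tween20 0.05%), test compounds at increasing concentrations competed with a fluorescein peptide (1.00×10^−8 M final) for histag-Bcl-2 (2.50×10^−8 M final). Readout was fluorescence polarisation after a 2 h incubation.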

Chain of Bcl-2 protein (P10415 whole entry): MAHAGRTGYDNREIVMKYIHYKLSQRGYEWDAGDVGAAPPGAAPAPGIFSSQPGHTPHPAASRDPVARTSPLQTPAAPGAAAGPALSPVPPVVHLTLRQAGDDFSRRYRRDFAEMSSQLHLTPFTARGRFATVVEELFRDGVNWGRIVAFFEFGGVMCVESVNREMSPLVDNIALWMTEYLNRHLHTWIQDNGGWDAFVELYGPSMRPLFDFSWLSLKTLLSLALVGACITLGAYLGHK

| SMILES | IC50 [1] | IC50 (Bcl-2 protein) | IC50 ([1]; RS4-11, 48 h) |
| --- | --- | --- | --- |
| Cc1c(C(=O)N(C)c2ccc(O)cc2)cc(-c2cc(CNC(=O)Oc3ccccc3)ccc2C(=O)N2Cc3ccccc3C[C@H]2C)n1C [Example 40, Phenyl (3-{4-[(4-hydroxyphenyl)(methyl)carbamoyl]-1,5-dimethyl-1H-pyrrol-2-yl}-4-{[(3R)-3-methyl-3,4-dihydroisoquinolin-2(1H)-yl]carbonyl}benzyl)-carbamate] | 431 nM | 64.4 nM | – |
| Cc1c(C(=O)N(c2ccc(O)cc2)c2ccc(F)cc2)cc(-c2cc(Cl)ccc2C(=O)N2Cc3ccccc3C[C@H]2CN2CCOCC2)n1C [Example 33, 5-(5-Chloro-2-{[(3S)-3-(morpholin-4-ylmethyl)-3,4-dihydroisoquinolin-2(1H)-yl]carbonyl}phenyl)-N-(4-fluorophenyl)-N-(4-hydroxyphenyl)-1,2-dimethyl-1H-pyrrole-3-carboxamide hydrochloride] | – | 10.9 nM | 57.8 nM |
| Cc1c(C(=O)N(c2ccc(O)cc2)c2cnc3c(ccn3C)c2)cc(-c2ccccc2C(=O)N2Cc3ccccc3C[C@H]2CN2CCOCC2)n1C [Example 409, N-(4-Hydroxyphenyl)-1,2-dimethyl-N-(1-methyl-1H-pyrrolo[2,3-b]-pyridin-5-yl)-5-(2-{[(3S)-3-(morpholin-4-ylmethyl)-3,4-dihydroisoquinolin-2(1H)-yl]-carbonyl}phenyl)-1H-pyrrole-3-carboxamide hydrochloride] | – | 12.2 nM | 41.9 nM |
| CCn1c(-c2cc3c(cc2C(=O)N2Cc4ccccc4C[C@H]2CN2CCOCC2)OCO3)cc(C(=O)N(c2ccc(O)cc2)c2cnn(C)c2)c1C [Example 92, 1-Ethyl-N-(4-hydroxyphenyl)-2-methyl-N-(1-methyl-1H-pyrazol-4-yl)-5-(6-{[(3S)-3-(morpholin-4-ylmethyl)-3,4-dihydroisoquinolin-2(1H)-yl]carbonyl}-1,3-benzodioxol-5-yl)-1H-pyrrole-3-carboxamide hydrochloride] | – | 8.4 nM | 37.8 nM |
| Cc1c(C(=O)N(c2ccc(O)cc2)c2cc(C#N)ccn2)cc(-c2cc(Cl)ccc2C(=O)N2Cc3ccccc3C[C@H]2CN2CCOCC2)n1C [Example 110, 5-(5-Chloro-2-{[(3S)-3-(morpholin-4-ylmethyl)-3,4-dihydroisoquinolin-2(1H)-yl]carbonyl}phenyl)-N-(4-cyanopyridin-2-yl)-N-(4-hydroxyphenyl)-1,2-dimethyl-1H-pyrrole-3-carboxamide hydrochloride] | – | 8.5 nM | 39.5 nM |
| Cc1c(C(=O)N(c2ccc(O)cc2)c2cc3ccn(C)c3cn2)cc(-c2cc3c(cc2C(=O)N2Cc4ccccc4C[C@H]2CN2CCOCC2)OCO3)n1C [Example 387, N-(4-Hydroxyphenyl)-1,2-dimethyl-N-(1-methyl-1H-pyrrolo[2,3-c]pyridin-5-yl)-5-(6-{[(3S)-3-(morpholin-4-ylmethyl)-3,4-dihydroisoquinolin-2(1H)-yl]carbonyl}-1,3-benzodioxol-5-yl)-1H-pyrrole-3-carboxamide hydrochloride] | – | 20.6 nM | 243 nM |
| Cc1c(C(=O)N(c2ccc(O)cc2)c2cnc3c(ccn3C)c2)cc(-c2cc(Cl)ccc2C(=O)N2Cc3ccccc3CC2C(F)(F)F)n1C (stereo not shown) [Example 430, 5-(5-Chloro-2-{[3-(trifluoromethyl)-3,4-dihydroisoquinolin-2(1H)-yl]-carbonyl}phenyl)-N-(4-hydroxyphenyl)-1,2-dimethyl-N-(1-methyl-1H-pyrrolo[2,3-b]-pyridin-5-yl)-1H-pyrrole-3-carboxamide] | – | 19.9 nM | 328 nM |
| Cc1c(C(=O)N(c2ccc(O)cc2)c2cnn(C3CCOC3)c2)cc(-c2cc(F)ccc2C(=O)N2Cc3ccccc3C[C@H]2CN2CCOCC2)n1C (single isomer, unassigned) [Example 402, 5-(5-Fluoro-2-{[(3S)-3-(morpholin-4-ylmethyl)-3,4-dihydroisoquinolin-2(1H)-yl]carbonyl}phenyl)-N-(4-hydroxyphenyl)-1,2-dimethyl-N-{1-[(3S or R)-tetrahydrofuran-3-yl]-1H-pyrazol-4-yl}-1H-pyrrole-3-carboxamide hydrochloride] | – | 26.1 nM | 241 nM |
| Cc1c(C(=O)N(c2ccccc2)c2ccc(O)cc2)cc(-c2cc(Cl)ccc2C(=O)N2Cc3ccccc3C[C@H]2CO)n1C [Example 38, 5-(5-Chloro-2-{[(3S)-3-(hydroxymethyl)-3,4-dihydroisoquinolin-2(1H)-yl]carbonyl}phenyl)-N-(4-hydroxyphenyl)-1,2-dimethyl-N-phenyl-1H-pyrrole-3-carboxamide] | – | 7.5 nM | 134 nM |
| Cc1nn(C)cc1N(C(=O)c1cc(-c2cc(Cl)ccc2C(=O)N2Cc3ccccc3C[C@H]2CN2CCOCC2)n(C)c1C)c1ccc(O)cc1 [Example 431, 5-(5-Chloro-2-{[(3S)-3-(morpholin-4-ylmethyl)-3,4-dihydroisoquinolin-2(1H)-yl]carbonyl}phenyl)-N-(1,3-dimethyl-1H-pyrazol-4-yl)-N-(4-hydroxyphenyl)-1,2-dimethyl-1H-pyrrole-3-carboxamide hydrochloride] | – | 3 nM | 89 nM |
| Cc1c(C(=O)N(C)c2ccc(O)cc2)cc(-c2cc(CCNS(=O)(=O)CCc3ccc(F)cc3)ccc2C(=O)N2Cc3ccccc3C[C@H]2C)n1C [Example 55, 5-(5-[2-({[2-(4-Fluorophenyl)ethyl]sulphonyl}amino)ethyl]-2-{[(3R)-3-methyl-3,4-dihydroisoquinolin-2(1H)-yl]carbonyl}phenyl)-N-(4-hydroxyphenyl)-N,1,2-trimethyl-1H-pyrrole-3-carboxamide] | – | 210 nM | > 600 nM |
| Cc1c(C(=O)N(c2ccc(O)cc2)c2cnc3c(ccn3C)c2)cc(-c2cc(Cl)ccc2C(=O)N2Cc3ccccc3C[C@H]2C)n1C [Example 63, 5-(5-Chloro-2-{[(3R)-3-methyl-3,4-dihydroisoquinolin-2(1H)-yl]-carbonyl}phenyl)-N-(4-hydroxyphenyl)-1,2-dimethyl-N-(1-methyl-1H-pyrrolo[2,3-b]-pyridin-5-yl)-1H-pyrrole-3-carboxamide] | – | 5.1 nM | 11.2 nM |
| COc1ncc(N(C(=O)c2cc(-c3cc4c(cc3C(=O)N3Cc5ccccc5C[C@H]3CN3CCOCC3)OCO4)n(C)c2C)c2ccc(O)cc2)cn1 [Example 50, N-(4-Hydroxyphenyl)-N-(2-methoxypyrimidin-5-yl)-1,2-dimethyl-5-(6-{[(3S)-3-(morpholin-4-ylmethyl)-3,4-dihydroisoquinolin-2(1H)-yl]carbonyl}-1,3-benzodioxol-5-yl)-1H-pyrrole-3-carboxamide hydrochloride] | – | 5.9 nM | 33.1 nM |
| Cc1c(N(C(=O)c2cc(-c3cc(F)ccc3C(=O)N3Cc4ccccc4C[C@H]3CN3CCOCC3)n(C)c2C)c2ccc(O)cc2)cnn1C [Example 453, N-(1,5-Dimethyl-1H-pyrazol-4-yl)-5-(5-fluoro-2-{[(3S)-3-(morpholin-4-ylmethyl)-3,4-dihydroisoquinolin-2(1H)-yl]carbonyl}phenyl)-N-(4-hydroxyphenyl)-1,2-dimethyl-1H-pyrrole-3-carboxamide hydrochloride] | – | 6.9 nM | 99.9 nM |
